Experimental data from ChEMBL document CHEMBL1124182, “Design, synthesis, and properties of (4S)-7-(4-amino-2-substituted-pyrrolidin-1-yl)quinolone-3-carboxylic acids” (J Med Chem, 1988).
≈ marks a conversion by molar mass, not a printed value.

Experiments:
Acinetobacter [1] = test: In vitro Minimum inhibitory concentration against Acinetobacter CMX 669; assay type: functional
Escherichia coli [2] = test: In vitro Minimum inhibitory concentration against Escherichia coli Juhl; assay type: functional
Klebsiella pneumoniae [3] = test: In vitro Minimum inhibitory concentration against Klebsiella pneumoniae 8045; assay type: functional
Mus musculus [4] = test: In vivo efficacy against Escherichia coli Juhl, in mouse protection test when administered subcutaneously (sc); assay type: functional
Mus musculus [5] = test: In vivo efficacy against Escherichia coli Juhl, in mouse protection tests. when administered perorally (po); assay type: functional
Mus musculus [6] = test: In vivo efficacy against Staphylococcus aureus 10649, in mouse protection test when administered perorally (po); assay type: functional
Mus musculus [7] = test: In vivo efficacy against Staphylococcus aureus 10649, in mouse protection test when administered subcutaneously (sc); assay type: functional
Pseudomonas aeruginosa [8] = test: In vitro Minimum inhibitory concentration against Pseudomonas aeruginosa 5007; assay type: functional
Pseudomonas aeruginosa [9] = test: In vitro Minimum inhibitory concentration against Pseudomonas aeruginosa K799/WT; assay type: functional
[10] = tested on: Staphylococcus epidermidis; test: In vitro Minimum inhibitory concentration against Staphylococcus epidermidis 3519; assay type: functional
Streptococcus agalactiae = test: In vitro Minimum inhibitory concentration against Streptococcus agalactiae CMX 508; assay type: functional
Staphylococcus aureus [11] = test: In vitro Minimum inhibitory concentration against Staphylococcus aureus 45; assay type: functional
Staphylococcus aureus [12] = test: In vitro Minimum inhibitory concentration against Staphylococcus aureus A5177; assay type: functional
Staphylococcus aureus [13] = test: In vitro Minimum inhibitory concentration against Staphylococcus aureus ATCC 6538P; assay type: functional
Streptococcus equinus = test: In vitro Minimum inhibitory concentration against Streptococcus bovis A5169; assay type: functional
Enterococcus faecium = test: In vitro Minimum inhibitory concentration against Streptococcus faecium ATCC 8043; assay type: functional
Streptococcus pyogenes = test: In vitro Minimum inhibitory concentration against Streptococcus pyogenes 930; assay type: functional
Staphylococcus aureus [14] = test: In vitro Minimum inhibitory concentration against Staphylococcus aureus CMX 686B; assay type: functional
[15] = Partition coefficient (logP); assay type: physicochemical; conditions: octanol/water
[16] = Compound was evaluated for the solubility in Ringer's buffer solution; assay type: ADME; conditions: Ringer's buffer solution; read-out: Solubility
Klebsiella pneumoniae [17] = test: In vitro Minimum inhibitory concentration against Klebsiella pneumoniae 8045
[18] = Blood level was evaluated by a disk agar diffusion assay at 3.0 hh when administered at a peroral dose of 100 mg/kg; assay type: ADME, organism-based; set-up: dose 100 mg/kg, route oral; conditions: mouse, po, read-out: Blood level
Acinetobacter [19] = test: In vitro Minimum inhibitory concentration against Acinetobacter CMX 669
Escherichia coli [20] = test: Supercoiling inhibition assay using purified DNA gyrase isolated from Escherichia coli H560; assay type: functional; conditions: read-out: I50
Mus musculus [21] = test: Blood level was evaluated at 1.0 hr when administered at a peroral dose of 25 mg/kg; assay type: functional; conditions: route oral
Mus musculus [22] = test: Blood level was evaluated at 2.0 hr when administered at a peroral dose of 25 mg/kg; assay type: functional; conditions: route oral
Mus musculus [23] = test: Blood level was evaluated at 24.0 hr when administered at a peroral dose of 25 mg/kg; assay type: functional; conditions: route oral
Mus musculus [24] = test: Blood level was evaluated at 3.0 hh when administered at a peroral dose of 25 mg/kg; assay type: functional; conditions: route oral
Mus musculus [25] = test: Blood level was evaluated at 6.0 hr when administered at a peroral dose of 25 mg/kg; assay type: functional; conditions: route oral
Mus musculus [26] = test: Blood level was evaluated by a disk agar diffusion assay at 0.5 hr when administered at a peroral dose of 25 mg/kg; assay type: functional; conditions: route oral
Mus musculus [27] = test: In vivo efficacy against Escherichia coli Juhl, in mouse protection test when the administered perorally (po); assay type: functional

Row | MIC (Acinetobacter [1]; Acinetobacter, read-out: MIC) [µg/mL] | MIC (Escherichia coli [2]) [µg/mL] | MIC (Klebsiella pneumoniae [3]) [µg/mL] | MIC (Pseudomonas aeruginosa [8]) [µg/mL] | MIC (Pseudomonas aeruginosa [9]) [µg/mL] | MIC [10] [µg/mL] | MIC (Streptococcus agalactiae) [µg/mL] | MIC (Staphylococcus aureus [11]) [µg/mL] | MIC (Staphylococcus aureus [12]) [µg/mL] | MIC (Staphylococcus aureus [13]) [µg/mL] | MIC (Streptococcus equinus) [µg/mL] | MIC (Enterococcus faecium) [µg/mL] | MIC (Streptococcus pyogenes) [µg/mL] | MIC (Staphylococcus aureus [14]) [µg/mL] | logP [15] | solubility [16] [µg/mL] | SMILES | ED50 (Mus musculus [4]) [mg/kg] | ED50 (Mus musculus [6]) [mg/kg] | ED50 (Mus musculus [7]) [mg/kg] | further results
1 | 0.2 (≈ 0.464 µM) | 0.1 (≈ 0.232 µM) | 0.05 (≈ 0.116 µM) | 6.2 (≈ 14.4 µM) | 0.78 (≈ 1.81 µM) | 0.1 (≈ 0.232 µM) | 0.1 (≈ 0.232 µM) | 0.1 (≈ 0.232 µM) | 0.1 (≈ 0.232 µM) | 0.05 (≈ 0.116 µM) | 0.2 (≈ 0.464 µM) | 0.2 (≈ 0.464 µM) | 0.1 (≈ 0.232 µM) | 0.05 (≈ 0.116 µM) |  |  | CCC1C[C@H](N)CN1c1cc2c(cc1F)c(=O)c(C(=O)O)cn2-c1ccc(F)cc1F (stereo partly specified) | 2.4 | 2.4 | 0.8 | ED50 (Mus musculus [5]): 9.6 mg/kg
2 |  | 0.78 (≈ 1.6 µM) |  | 1.56 (≈ 3.21 µM) | 1.56 (≈ 3.21 µM) | 3.1 (≈ 6.37 µM) | 25 (≈ 51.4 µM) | 3.1 (≈ 6.37 µM) | 3.1 (≈ 6.37 µM) | 1.56 (≈ 3.21 µM) | 25 (≈ 51.4 µM) | 6.2 (≈ 12.7 µM) | 25 (≈ 51.4 µM) | 1.56 (≈ 3.21 µM) | -0.56 | 680 (≈ 1400 µM) | N[C@H]1CC(CN2CCCC2)N(c2cc3c(cc2F)c(=O)c(C(=O)O)cn3-c2ccc(F)cc2F)C1 (stereo partly specified) |  |  |  | MIC (Klebsiella pneumoniae [17]): 0.39 µg/mL (≈ 0.802 µM)
3 | 0.1 (≈ 0.248 µM) | 0.05 (≈ 0.124 µM) | 0.05 (≈ 0.124 µM) | 1.56 (≈ 3.87 µM) |  | 0.1 (≈ 0.248 µM) | 0.2 (≈ 0.496 µM) | 0.1 (≈ 0.248 µM) | 0.1 (≈ 0.248 µM) | 0.05 (≈ 0.124 µM) | 0.78 (≈ 1.93 µM) | 0.2 (≈ 0.496 µM) | 0.2 (≈ 0.496 µM) | 0.05 (≈ 0.124 µM) |  |  | NC1CCN(c2cc3c(cc2F)c(=O)c(C(=O)O)cn3-c2ccc(F)cc2F)C1 (stereo unspecified) |  |  |  | MIC (Acinetobacter [1]): 0.1 µg/mL (≈ 0.248 µM); concentration at 3 h [18]: 900 ng/mL; MIC (Acinetobacter [19]): 0.1 µg/mL (≈ 0.248 µM)
4 | 0.1 (≈ 0.239 µM) | 0.02 (≈ 0.0478 µM) | 0.02 (≈ 0.0478 µM) | 0.78 (≈ 1.86 µM) | 0.78 (≈ 1.86 µM) | 0.05 (≈ 0.12 µM) | 0.2 (≈ 0.478 µM) | 0.05 (≈ 0.12 µM) | 0.05 (≈ 0.12 µM) | 0.02 (≈ 0.0478 µM) | 0.2 (≈ 0.478 µM) | 0.1 (≈ 0.239 µM) | 0.2 (≈ 0.478 µM) | 0.02 (≈ 0.0478 µM) | -0.2 | 150 (≈ 359 µM) | C[C@H]1C[C@H](N)CN1c1nc2c(cc1F)c(=O)c(C(=O)O)cn2-c1ccc(F)cc1F | 0.6 | > 2.5 | 0.9 | IC50 (Escherichia coli [20]): 0.6 µg/mL (≈ 1.43 µM); Blood level (Mus musculus [21]): 3.2 µg/mL; Blood level (Mus musculus [22]): 3.3 µg/mL; Blood level (Mus musculus [23]): 0.2 µg/mL; Blood level (Mus musculus [24]): 2.8 µg/mL; Blood level (Mus musculus [25]): 1.3 µg/mL; Blood level (Mus musculus [26]): 5.9 µg/mL; ED50 (Mus musculus [27]): 2.7 mg/kg
